How the values were obtained:
[1] = system: bone marrow-derived macrophages; test: CD11c on the cell surface of bone marrow-derived macrophages by flow cytometry; type: cell-based, mice; conditions: vs DMSO-treated control group
Method: Next, we assumed that the transcription factor that binds to the nucleotide sequence of the determined region as above was FoxO1, and a FoxO1 inhibitor AS1842856 was administered to the bone marrow-derived macrophages respectively collected from Syk gene-deficient mice (Syk^del/del) and wild-type mice (Syk^+/+), and CD11c on the cell surface was measured by flow cytometry.

bone marrow monocytes = test: CD11c expression in bone marrow monocytes by real-time PCR after intraperitoneal administration; type: in vivo; conditions: wild-type mice, 20 mg/kg intraperitoneally for 2 weeks, vs DMSO-treated group
Method: (§1) In this Example, the following experiment was carried out. First, the FoxO1 inhibitor AS1842856 (20 mg/kg) was intraperitoneally administered to Syk gene-deficient mice (Syk^del/del) and wild-type mice (Syk^+/+) for 2 weeks. The expression of CD11c in collected bone marrow monocytes was measured by real-time PCR, and the CD11c expression (%) in peripheral blood monocytes (CD115 positive cells) was measured by flow cytometry. CD115 is a monocyte marker.

[2] = system: peripheral blood monocytes (CD115 positive cells); test: CD11c expression (%) in peripheral blood monocytes (CD115 positive cells) by flow cytometry after intraperitoneal administration; type: in vivo; conditions: wild-type mice, 20 mg/kg intraperitoneally for 2 weeks, vs DMSO-treated group
Method: as §1

[3] = system: atherosclerosis lesions in the aortic sinus; test: Atherosclerosis lesions in the aortic sinus evaluated using HE staining; type: in vivo; conditions: wild-type mice (Syk+/+), 20 mg/kg intraperitoneally for 8 weeks, vs DMSO-treated group
Method: Next, after the FoxO1 inhibitor AS1842856 (20 mg/kg) was intraperitoneally administered to wild-type mice (Syk^+/+) for 8 weeks, atherosclerosis lesions in the aortic sinus were evaluated using HE staining.

CCn1cc(C(=O)O)c(=O)c2c(N)c(F)c(NC3CCCCC3)cc21 [AS1842856, 5-amino-7-(cyclohexylamino)-1-ethyl-6-fluoro-4-oxo-1,4-dihydroquinoline-3-carboxylic acid]
expression of CD11c on the cell surface ([1]; bone marrow-derived macrophages from Syk gene-deficient mice (Syk del/del)): no significant difference
expression of CD11c on the cell surface ([1]; bone marrow-derived macrophages from wild-type mice (Syk+/+)): significantly decreased
CD11c expression in bone marrow monocytes (bone marrow monocytes): significantly decreased
CD11c/CD115 ratio in peripheral blood monocytes [2]: significantly decreased
atherosclerosis lesions in the aortic sinus [3]: Atherosclerosis was suppressed

From patent US20260256769A1, “ARTERIOSCLEROSIS SUPPRESSION THROUGH INHIBITION OF TRANSCRIPTION FACTOR FoxO1” (TEIKYO UNIVERSITY, priority 2022, published 2026)
